Results as given in US6218112A, “Optimization of gene delivery and gene delivery system” (Cobra Therapeutics Limited, priority 1997, dated 2001).
* marks the point of attachment. Acm = CC(=O)NC*

Assays:
Jurkat cell line = assay: In vitro transfection with pRSVLuc (luciferase) condensed on peptides; assay type: cell-based; conditions: peptide 2 μg/μg plasmid DNA, luciferase after 24 h, FIG. 7
Description: After incubation the cells are lysed and are assayed for gene expression. In the case of the luciferase reporter gene, luciferin and ATP are added to lysed cells and the light emitted is measured with a luminometer (see deWet et al., supra).
Cell lines such as Jurkat and K562 grow in suspension and can be transfected and the level of transgene expression (luciferase activity) determined b) the following method. Cells are harvested on the day of assay by centrifugation at 1200 rpm for 5 mins at room temperature. The cell pellet is resuspended in phosphate buffered saline and re-centrifuged. This operation is performed twice. […] The cells are then aliquoted into tubes and 0.75 ml of RPMI medium added, followed by 0.04-0.08 ml of 100 mM Chloroquine and finally 0.25 ml of DNA-complex solution. The transfection is then allowed to proceed by incubating the cells at 37° C. for 4 h. After this time the cells are harvested by centrifugation at 2000 rpm. The cells are then suspended in 1 ml of RPMI medium and re-centrifuged. Finally the cells are suspended in 0.5 ml RPMI medium containing 10% foetal bovine serum. Each 0.5 ml of transfected cell suspension is transferred to a well of a 12 well plastic culture plate containing 1.5 ml of RPMI 10% FBS. The original transfection tube is rinsed with a further 1 ml of medium and the wash transferred to the culture dish making a final volume of 3 ml. The culture plate is then incubated at 37° C. for 24-90 h in an atmosphere of 5% CO2. The contents of each well in the culture dish are transferred to centrifuge tubes and the cells collected by centrifugation at 13000 rpm. The pellet is resuspended in 0.12 ml of Lysis Buffer (100 mM sodium phosphate, pH 7.8; 8 mM magnesium chloride, 1 mM EDTA; 1% Triton X-100 and 15% glycerol) and agitated with a pipette. The lysate is centrifuged at 13000 rpm for 1 min and the supernatant collected. 80 μl of the supernatant are transferred to a luminometer tube. The luciferase activity is then assayed using a Berthold Lumat L9501 luminometer. The assay buffer used is Lysis Buffer containing 10 mM Luciferin and 100 mM ATP. Light produced by the luciferase is integrated over 4s and is described as relative light units (RLU). The data are converted to RLU/ml of lysate, RLU/cell or RLU/mg protein (protein concentration of the lysate having been determined in this case by the BioRAD Lowry assay.
In order to compare the relative efficiency of transfection of complexes composed of different NBC condensation peptides or poly-L-lysine, pRSVLuc DNA at a concentration of 100 μg/ml was condensed using peptide at a ratio of 2 μg/μg plasmid DNA as described herein with the following deviation: prior to addition to the cells (Jurkat cell line) the complexes were diluted to 20 μg/ml with 10% PEG 10 000; 37 mM sodium chloride; 25 mM sodium phosphate, pH 7.4. The cells were assayed for luciferase after 24 h.

[1] = system: KLN-205 squamous epithelial syngenic tumour cells; assay: In vivo transfection of KLN-205 tumours in DBA2 mice by local injection of peptide/plasmid complexes (nitroreductase immunostaining); parameters: species or system mouse; conditions: for ranking by numbers of transfected tumor cells (most to least efficient): 0.5 μg peptide/μg DNA, intratumoural injection
Description: A representative in via cell transfection system is transfection of tumor cells using a murine carcinoma model.
The murine carcinoma model DBA2 containing the squamous epithelial syngenic tumour cell line KLN-205 was prepared as described in the Examples. A transfecting complex was prepared using a solution of plasmid DNA encoding a reporter gene or, for example, nitroreductase and a selected NBC peptide 0.5 μg peptide/μg DNA, as described herein. Where desired, a conjugate peptide was added to the transfecting complex, at a concentration of 0.1-0.3 μg […] peptide/μg DNA.
Transfection efficiency may be determined in a number of ways, including assessing the effect of the reporter gene on the target tissue, or by quantitating the gene product. Below, tissues samples were obtained and nitroreductase gene expression was ascertained via staining of tissue sections.
The ability to transfect tumor cells in vivo in mice was tested using plasmid nucleic acid carrying the nitroreductase reporter gene condensed on each of the following peptides: NBC15, NBC8, NBC9, NBC11, NBC7.
DBA2--male mice, aged 5-10 weeks were injected subcutaneously in each flank with a squamous epithelial syngenic tumour cell line KLN-205. The cell line was grown up in 175 ml T-flasks in standard EMEM medium containing 10% foetal calf serum. When the cells reached a density of 4×10^6 they were suspended by a standard trypsinization technique, washed in PBS and diluted to a final concentration of […].
The anaesthetic was Enflurane (Alynane; Anaquest, Ltd., Windlesham, Surrey UK): Ketamine (10% Ketaset, Willows Francis Veterinary, Cramley, West Sussex, UK); Rompun (2%, Bayer UK, Ltd., Suffolk, UK). For 10 ml anaesthetic mixture: 8.5 ml PBS; 1 ml Ketamine; 0.5 ml Rompun. Each animal was injected intra-peritoneally with 200 μl/animal using 1 ml syringe with 25 gauge needle. Once anaesthetized, the tumour is manipulated between the fingers lifting it slightly away from the animal's body and at the same time apply minimum pressure to the tumour. Using a 0.5 ml insulin needle the formulated delivery vehicle (a plasmid containing the E. coli nitroreductase gene condensed on a peptide at a ratio of 0.5 μg peptide/μg DNA) to be injected is taken up and the tumour is injected horizontally trying to avoid any visible blood vessels and necrotic or abnormal tissue. Daily monitoring is continued until the experiment is terminated.
7μ sections of frozen tumour tissue are prepared using standard methods and a Cryostat and air dried. Sections are fixed with freshly prepared 4% PFA/PBS for 30 mins at room temperature and then washed twice with 0.01% Tween-20/PBS 5 mins each wash. Sections are then immersed in 0.25% hydrogen peroxide/PBS, at room temperature (20C.) for 30 mins, and then washed three times in 0.01% Tween 20/PBS for 5 mins each wash. Sections are then permeabilised by treatment with ice cold 0.1 % TRITON X-100 for 5 mins, followed by a further two washes in 0.01% Tween-20/PBS 5mins each wash. The sections are then blocked with 5% NGS/PBS 60mins at room temperature in a wetbox. After decanting the blocking solution, 0.5 ml diluted antiserum/slide (1:400 in 2.5% NGS) is added and the sections incubated for 60 mins at room temperature. Slides are then washed three times in 0.01% Tween-20/PBS 5 mins each wash. Secondary antibody (0.5 ml) from ABC Elite Vector stain kit is added as follows and incubated 30 mins at room temperature in a wetbox.
The tumour is a murine syngenic squamous carcinoma produced by subcutaneous injection of KLN205 cells. When the tumours were approximately 4 mm in diameter they were injected with 20 μl of plasmid DNA formulated with the NBC15 peptide. After 48 h the tumours were excised and sectioned by standard histological techniques and immunostained for expression of the transgene (E. coli nitroreductase). […] In this case the tumours were injected with the same plasmid formulated in 0.5 μg NBC9 peptide/μg DNA.

cells = assay: Transfection efficiency / activity of complexes (general statement); assay type: cell-based; conditions: related to affinity for nucleic acid

Substance	rank in order of relative transfection efficiency (most to least efficient) (Jurkat cell line)	ranking by numbers of transfected tumor cells (most to least efficient) [1]	transfection efficiency (cells)	transfection efficiency on direct injection within a localized area ([1]; in vivo, direct injection, e.g. a tumour)
NH2-TKKAWKKAEKKAAKKCGVSAKKAAKKAWKKA-CONH2 (H-TKKAWKKAEKKAAKKCGVSAKKAAKKAWKKA-NH2) [NBC11]	NBC11>NBC13>NBC8>>NBC15>>>polylysine	NBC15>NBC8, NBC9, NBC11>NBC7>>>poly-lysine	not completely deleterious to transfection	
NH2-KKSPKKAKKPAAKKSPKKAKKPAYC(Acm)-COOH (H-KKSPKKAKKPAAKKSPKKAKKPAYC(Acm)-OH; SMILES CC(=O)NCSC[C@H](NC(=O)[C@H](Cc1ccc(O)cc1)NC(=O)[C@H](C)NC(=O)[C@@H]1CCCN1C(=O)[C@H](CCCCN)NC(=O)[C@H](CCCCN)NC(=O)[C@H](C)NC(=O)[C@H](CCCCN)NC(=O)[C@H](CCCCN)NC(=O)[C@@H]1CCCN1C(=O)[C@H](CO)NC(=O)[C@H](CCCCN)NC(=O)[C@H](CCCCN)NC(=O)[C@H](C)NC(=O)[C@H](C)NC(=O)[C@@H]1CCCN1C(=O)[C@H](CCCCN)NC(=O)[C@H](CCCCN)NC(=O)[C@H](C)NC(=O)[C@H](CCCCN)NC(=O)[C@H](CCCCN)NC(=O)[C@@H]1CCCN1C(=O)[C@H](CO)NC(=O)[C@H](CCCCN)NC(=O)[C@@H](N)CCCCN)C(=O)O) [NBC8]	NBC11>NBC13>NBC8>>NBC15>>>polylysine	NBC15>NBC8, NBC9, NBC11>NBC7>>>poly-lysine		optimal transfection efficiency
